Reference: patent US20230055237A1, “COMPOUNDS AND METHODS FOR THE TREATMENT OF CYSTIC FIBROSIS” (Flatley Discovery Lab, LLC, priority 2019, published 2023)

Molecular target: T1, CFTR (Homo sapiens, UniProt P13569, DEL508-508)
T1 construct: Primary CF airway epithelial cells were obtained from the UNC Cystic Fibrosis Tissue Procurement and Cell Culture Core; host or cells: primary CF airway epithelial cells, differentiated at the air-liquid interface
Test: Equivalent current assay in primary CF airway epithelial cells (NAUC, combination with 1st site corrector FDL169 or VX-809)
Type: cell-based
Conditions: 37° C., 24 h

[1] = test compound 1 μM in combination with 1st site corrector FDL169 (3 μM)
[2] = test compound 3 μM in combination with 1st site corrector FDL169 (3 μM)
[3] = test compound 10 μM in combination with 1st site corrector FDL169 (3 μM)
[4] = test compound 3 μM in combination with 1st site corrector VX-809 (3 μM)
[5] = test compound 10 μM in combination with 1st site corrector VX-809 (3 μM)

T1 sequence (P13569 with tags, fused parts or gaps DEL508-508): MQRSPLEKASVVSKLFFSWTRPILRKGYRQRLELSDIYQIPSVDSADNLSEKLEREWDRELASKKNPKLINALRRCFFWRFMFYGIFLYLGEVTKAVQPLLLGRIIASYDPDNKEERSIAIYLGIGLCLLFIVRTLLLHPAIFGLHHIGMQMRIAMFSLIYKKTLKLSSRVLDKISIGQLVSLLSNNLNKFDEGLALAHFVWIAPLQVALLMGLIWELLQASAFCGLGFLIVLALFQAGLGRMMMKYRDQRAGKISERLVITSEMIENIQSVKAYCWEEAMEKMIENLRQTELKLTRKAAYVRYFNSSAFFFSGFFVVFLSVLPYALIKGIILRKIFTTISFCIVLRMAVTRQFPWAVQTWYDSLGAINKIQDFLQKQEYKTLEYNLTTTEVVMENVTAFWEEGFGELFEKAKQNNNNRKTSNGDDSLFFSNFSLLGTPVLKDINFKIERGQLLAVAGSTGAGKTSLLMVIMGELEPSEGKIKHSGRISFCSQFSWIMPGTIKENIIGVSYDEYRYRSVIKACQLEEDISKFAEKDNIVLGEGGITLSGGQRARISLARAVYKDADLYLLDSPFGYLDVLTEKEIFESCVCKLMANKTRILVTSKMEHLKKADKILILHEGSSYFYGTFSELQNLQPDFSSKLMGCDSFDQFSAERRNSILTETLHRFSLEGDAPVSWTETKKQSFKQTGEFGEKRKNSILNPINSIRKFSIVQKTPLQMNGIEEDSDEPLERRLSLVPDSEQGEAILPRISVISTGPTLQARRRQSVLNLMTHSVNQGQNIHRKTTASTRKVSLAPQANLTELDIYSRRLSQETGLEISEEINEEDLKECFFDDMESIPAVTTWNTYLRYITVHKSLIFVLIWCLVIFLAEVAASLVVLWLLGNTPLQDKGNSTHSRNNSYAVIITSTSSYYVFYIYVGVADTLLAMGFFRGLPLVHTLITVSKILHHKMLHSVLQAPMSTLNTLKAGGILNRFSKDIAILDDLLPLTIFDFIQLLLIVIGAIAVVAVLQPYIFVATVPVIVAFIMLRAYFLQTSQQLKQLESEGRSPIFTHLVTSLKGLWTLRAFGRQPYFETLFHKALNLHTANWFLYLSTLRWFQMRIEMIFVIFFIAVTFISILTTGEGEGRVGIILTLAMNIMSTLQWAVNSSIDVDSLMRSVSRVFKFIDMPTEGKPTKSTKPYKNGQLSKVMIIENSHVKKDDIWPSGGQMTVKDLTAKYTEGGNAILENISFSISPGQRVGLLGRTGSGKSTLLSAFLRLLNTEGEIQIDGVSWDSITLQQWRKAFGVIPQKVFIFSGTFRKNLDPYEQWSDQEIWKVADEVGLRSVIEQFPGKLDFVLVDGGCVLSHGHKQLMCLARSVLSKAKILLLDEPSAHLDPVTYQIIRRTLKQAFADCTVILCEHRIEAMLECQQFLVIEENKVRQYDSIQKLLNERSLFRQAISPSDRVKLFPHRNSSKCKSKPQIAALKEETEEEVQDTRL

| SMILES | Nauc @ 1 μM [1] | Nauc @ 3 μM [2] | Nauc @ 10 μM [3] | Nauc @ 1 μM (test compound 1 μM in combination with 1st site corrector VX-809 (3 μM)) | Nauc @ 3 μM [4] | Nauc @ 10 μM [5] |
| --- | --- | --- | --- | --- | --- | --- |
| CC(C)(C)CN(C(=O)[C@H]1[C@H]2CC(C)(C)CN2C2(C(=O)Nc3c(Cl)cc(Cl)cc32)[C@H]1C(=O)O)c1cc(Cl)cc(Cl)c1 (single isomer, unassigned) [Example 274.6a, (1′R,2′S,7a′R)-5,7-dichloro-1-((3,5-dichlorophenyl)(neopentyl)carbamoyl)-6′,6′-dimethyl-2-oxo1′,2′,5′,6′,7′,7a′-hexahydrospiro[indoline-3,3′-pyrrolizine]-2′-carboxylic acid] | ++ (NAUC “++” refers to an observed NAUC 170-140% of positive control) | + (NAUC “+” refers to an observed NAUC <140% of positive control) | + (NAUC “+” refers to an observed NAUC <140% of positive control) | – | – | – |
| CC(C)(C)CN(C(=O)[C@H]1[C@@H](C(=O)O)C2(C(=O)Nc3c(Cl)cc(Cl)cc32)N2CC(C)(C)C[C@@H]12)c1cc(Cl)cc(Cl)c1 (single isomer, unassigned) [Example 274.6b, (1′S,2′R,7a′S)-5,7-dichloro-1′-((3,5-dichlorophenyl)(neopentyl)carbamoyl)-6′,6′-dimethyl-2-oxo-1′,2′,5′,6′,7′,7a′-hexahydrospiro[indoline-3,3′-pyrrolizine]-2′-carboxylic acid] | +++ (NAUC “+++” refers to an observed NAUC>170% of positive control) | ++ (NAUC “++” refers to an observed NAUC 170-140% of positive control) | + (NAUC “+” refers to an observed NAUC <140% of positive control) | – | – | – |
| CC(C)(C)CN(C(=O)[C@H]1[C@H]2CC3(CC3)CN2[C@]2(C(=O)Nc3c(Cl)cc(Cl)cc32)[C@H]1C(=O)O)c1cc(Cl)cc(Cl)c1 (single isomer, unassigned) [Example 275.7a] | +++ (NAUC “+++” refers to an observed NAUC>170% of positive control) | +++ (NAUC “+++” refers to an observed NAUC>170% of positive control) | +++ (NAUC “+++” refers to an observed NAUC>170% of positive control) | – | – | – |
| CC(C)(C)CN(C(=O)[C@H]1[C@@H](C(=O)O)[C@]2(C(=O)Nc3c(Cl)cc(Cl)cc32)N2CC3(CC3)C[C@@H]12)c1cc(Cl)cc(Cl)c1 (single isomer, unassigned) [Example 275.7b] | +++ (NAUC “+++” refers to an observed NAUC>170% of positive control) | +++ (NAUC “+++” refers to an observed NAUC>170% of positive control) | ++ (NAUC “++” refers to an observed NAUC 170-140% of positive control) | – | – | – |
| CC(C)(C)c1cccc(C(C)(C)CNC(=O)C2C3CC(F)(F)CN3C3(C(=O)Nc4c(Cl)cc(Cl)cc43)C2C(=O)O)c1 (single isomer, unassigned) [Example 288a, 1′-((2-(3-(tert-butyl)phenyl)-2-methylpropyl)carbamoyl)-5,7-dichloro-6′,6′-difluoro-2-oxo-1′,2′,5′,6′,7′,7a′-hexahydrospiro[indoline-3,3′-pyrrolizine]-2′-carboxylic acid] | – | – | – | +++ (NAUC “+++” refers to an observed NAUC>170% of positive control) | +++ (NAUC “+++” refers to an observed NAUC>170% of positive control) | +++ (NAUC “+++” refers to an observed NAUC>170% of positive control) |
| O=C(Nc1cc(C(F)(F)F)cc(C(F)(F)F)n1)C1C2CC3(CC3)CN2C2(C(=O)Nc3c(Cl)cc(Cl)cc32)C1C(=O)O (stereo not drawn) [Example 1] | – | – | – | – | +++ (NAUC “+++” refers to an observed NAUC>170% of positive control) | +++ (NAUC “+++” refers to an observed NAUC>170% of positive control) |
| O=C(Nc1cncc(C(F)(F)F)n1)C1C2CC3(CC3)CN2C2(C(=O)Nc3c(Cl)cc(Cl)cc32)C1C(=O)O (stereo not drawn) [Example 2] | – | – | – | – | + (NAUC “+” refers to an observed NAUC <140% of positive control) | ++ (NAUC “++” refers to an observed NAUC 170-140% of positive control) |
| C[C@]1(O)CC2C(C(=O)Nc3cc(Cl)cc(Cl)c3)C(C(=O)O)C3(C(=O)Nc4c(Cl)cc(Cl)cc43)N2C1 (stereo partly drawn) [Example 3] | – | – | – | – | +++ (NAUC “+++” refers to an observed NAUC>170% of positive control) | +++ (NAUC “+++” refers to an observed NAUC>170% of positive control) |
| C[C@]1(O)CC2C(C(=O)Nc3cc(Cl)c(OC(F)F)c(Cl)c3)C(C(=O)O)C3(C(=O)Nc4c(Cl)cc(Cl)cc43)N2C1 (stereo partly drawn) [Example 4] | – | – | – | – | +++ (NAUC “+++” refers to an observed NAUC>170% of positive control) | +++ (NAUC “+++” refers to an observed NAUC>170% of positive control) |
| C[C@]1(O)CC2C(C(=O)Nc3cc(C(F)(F)F)cc(C(F)(F)F)n3)C(C(=O)O)C3(C(=O)Nc4c(Cl)cc(Cl)cc43)N2C1 (stereo partly drawn) [Example 5] | – | – | – | – | +++ (NAUC “+++” refers to an observed NAUC>170% of positive control) | +++ (NAUC “+++” refers to an observed NAUC>170% of positive control) |
| COc1cc(C(F)(F)F)cc(NC(=O)C2C3C[C@](C)(O)CN3C3(C(=O)Nc4c(Cl)cc(Cl)cc43)C2C(=O)O)n1 (stereo partly drawn) [Example 6] | – | – | – | – | +++ (NAUC “+++” refers to an observed NAUC>170% of positive control) | +++ (NAUC “+++” refers to an observed NAUC>170% of positive control) |
| O=C(Nc1cc(Cl)cc(Cl)c1)C1C2CC(F)(F)CN2C2(C(=O)Nc3c(Cl)cc(Cl)cc32)C1C(=O)O (stereo not drawn) [Example 7] | – | – | – | – | – | +++ (NAUC “+++” refers to an observed NAUC>170% of positive control) |
| CC1(C)CC2C(C(=O)Nc3cc(Cl)c(OC(F)F)c(Cl)c3)C(C(=O)O)C3(C(=O)Nc4c(Cl)cc(Cl)cc43)N2C1 (stereo not drawn) [Example 8, 5,7-dichloro-1′-((3,5-dichloro-4-(difluoromethoxy)phenyl)carbamoyl)-6′,6′-dimethyl-2-oxo-1′,2′,5′,6′,7′,7a′-hexahydrospiro[indoline-3,3′-pyrrolizine]-2′-carboxylic acid] | – | – | – | – | +++ (NAUC “+++” refers to an observed NAUC>170% of positive control) | +++ (NAUC “+++” refers to an observed NAUC>170% of positive control) |
| COc1c(Cl)cc(NC(=O)C2C3CC(F)(F)CN3C3(C(=O)Nc4c(Cl)cc(Cl)cc43)C2C(=O)O)cc1Cl (stereo not drawn) [Example 9] | – | – | – | – | +++ (NAUC “+++” refers to an observed NAUC>170% of positive control) | +++ (NAUC “+++” refers to an observed NAUC>170% of positive control) |
| O=C(Nc1cc(C(F)(F)F)ccn1)C1C2CCCN2C2(C(=O)Nc3c(Cl)cc(Cl)cc32)C1C(=O)O (stereo not drawn) [Example 10] | – | – | – | – | ++ (NAUC “++” refers to an observed NAUC 170-140% of positive control) | ++ (NAUC “++” refers to an observed NAUC 170-140% of positive control) |
| O=C(Nc1cc(C(F)(F)F)ccn1)C1C2CC(F)(F)CN2C2(C(=O)Nc3c(Cl)cc(Cl)cc32)C1C(=O)O (stereo not drawn) [Example 11] | – | – | – | – | +++ (NAUC “+++” refers to an observed NAUC>170% of positive control) | ++ (NAUC “++” refers to an observed NAUC 170-140% of positive control) |
| O=C(Nc1cc(Cl)c(OC(F)F)c(Cl)c1)C1C2CC3(CC3)CN2C2(C(=O)Nc3c(Cl)cc(Cl)cc32)C1C(=O)O (stereo not drawn) [Example 12] | – | – | – | – | +++ (NAUC “+++” refers to an observed NAUC>170% of positive control) | +++ (NAUC “+++” refers to an observed NAUC>170% of positive control) |
| CC1(C)CC2C(C(=O)Nc3cc(Cl)cc(Cl)c3)C(C(=O)O)C3(C(=O)Nc4c(Cl)cc(Cl)cc43)N2C1 (stereo not drawn) [Example 13] | – | – | – | – | +++ (NAUC “+++” refers to an observed NAUC>170% of positive control) | +++ (NAUC “+++” refers to an observed NAUC>170% of positive control) |
| COc1c(Cl)cc(NC(=O)C2C3CC(C)(C)CN3C3(C(=O)Nc4c(Cl)cc(Cl)cc43)C2C(=O)O)cc1Cl (stereo not drawn) [Example 14] | – | – | – | – | +++ (NAUC “+++” refers to an observed NAUC>170% of positive control) | +++ (NAUC “+++” refers to an observed NAUC>170% of positive control) |
| O=C(Nc1cc(Cl)cc(Cl)c1)C1C2CCCN2C2(C(=O)Nc3c(Cl)cc(Cl)cc32)C1C(=O)O (stereo not drawn) [Example 15] | – | – | – | – | +++ (NAUC “+++” refers to an observed NAUC>170% of positive control) | +++ (NAUC “+++” refers to an observed NAUC>170% of positive control) |
| O=C(Nc1cc(Cl)cc(Cl)c1)C1C2CC3(CC3)CN2C2(C(=O)Nc3c(Cl)cc(Cl)cc32)C1C(=O)O (stereo not drawn) [Example 16] | – | – | – | – | +++ (NAUC “+++” refers to an observed NAUC>170% of positive control) | +++ (NAUC “+++” refers to an observed NAUC>170% of positive control) |
| O=C(Nc1cncc(C(F)(F)F)n1)C1C2C[C@@](O)(C(F)(F)F)CN2C2(C(=O)Nc3c(Cl)cc(Cl)cc32)C1C(=O)O (stereo partly drawn) [Example 17] | – | – | – | – | +++ (NAUC “+++” refers to an observed NAUC>170% of positive control) | +++ (NAUC “+++” refers to an observed NAUC>170% of positive control) |
| O=C(Nc1cncc(C(F)(F)F)n1)C1C2C[C@H](C(F)(F)F)CN2C2(C(=O)Nc3c(Cl)cc(Cl)cc32)C1C(=O)O (stereo partly drawn) [Example 18] | – | – | – | – | + (NAUC “+” refers to an observed NAUC <140% of positive control) | +++ (NAUC “+++” refers to an observed NAUC>170% of positive control) |
| O=C(Nc1cc(Cl)c(OC(F)F)c(Cl)c1)C1C2CCCN2C2(C(=O)Nc3c(Cl)cc(Cl)cc32)C1C(=O)O (stereo not drawn) [Example 19] | – | – | – | – | ++ (NAUC “++” refers to an observed NAUC 170-140% of positive control) | +++ (NAUC “+++” refers to an observed NAUC>170% of positive control) |
| O=C(Nc1cc(Cl)c(OC(F)F)c(Cl)c1)C1C2CC(F)(F)CN2C2(C(=O)Nc3c(Cl)cc(Cl)cc32)C1C(=O)O (stereo not drawn) [Example 20] | – | – | – | – | +++ (NAUC “+++” refers to an observed NAUC>170% of positive control) | +++ (NAUC “+++” refers to an observed NAUC>170% of positive control) |
